Assay results published in paper PMC11798738, “Targeting ASK1 by CS17919 alleviates kidney‐ and liver‐related diseases in murine models” (Animal Models and Experimental Medicine, 2024).
Marks after values point to notes of the source that are not given here.

Columns and labels:
[1] = Pharmacokinetic study in mice, oral; type: in vivo, C57BL/6J mice; settings: mouse plasma, mean ± SD, n = 3
Protocol: Male C57BL/6J mice (Beijing Huafukang Biotechnology Co., Ltd, Beijing, China) were selected at 6–8 weeks for the experiment. […] About 50–60 μL of blood and tissue were isolated in anticoagulation tubes at 15, 30 min, 1, 2, 4, 6, and 8 h after administration, respectively, and then centrifuged at 5000 r/min for 7 min at 4°C. […] The standard solution was prepared with 7 concentrations and QC with 3. The standard and QC working solutions were added to the 96‐well plate, and the protein was precipitated by adding acetonitrile solution containing the internal standard together with the sample to be tested. After shaking for 10 min and centrifugation at 12 000 × g for 10 min, the supernatants from the 96‐well plate were analyzed by LC–MS (mobile phase: 0.1% formic acid‐water 0.1% formic acid‐acetonitrile). Raw data were imported into Phoenix WinNonlin to calculate AUC, C max, T 1/2, etc.

[2] = system: L02 cells; experiment: Cell protection in PA-stimulated L02 cells (Cell Titer-Glo viability); type: cell-based, human; settings: 50 μmol/L PA, 72 h
Protocol: L02 cells were cultured in DMEM medium (Gibco, 11 965 092, Carlsbad, CA, USA) supplemented with 20% FBS and 1× penicillin–streptomycin. L02 cells were inoculated in two 96‐well plates at 1E4 cells/well (200 μL). The following day, the cells were stimulated with 50 μmol/L PA (dissolved in ethanol to make a 200× stock solution and then added to the medium) and simultaneously incubated with different concentrations of CS17919 and GS‐4997 (CS17919 and GS‐4997 stock solutions were added to the well plates to reach a final concentration of 10–0.3 μmol/L). After 72 h of incubation, the original medium was removed, followed by the addition of 100 μL of new DMEM medium and 60 μL of Cell Titer‐Glo reagent per well. The cells were incubated for 5 min in the dark, and then transferred to a black permeable plate for detection using an enzyme plate reader (Tecan spark, Grödig, Austria).

[3] = molecular target: CYP 2B6 (Homo sapiens, UniProt P20813); experiment: CYP inhibition in vitro; type: in vitro ADME
Sequence of CYP 2B6 (P20813 whole entry): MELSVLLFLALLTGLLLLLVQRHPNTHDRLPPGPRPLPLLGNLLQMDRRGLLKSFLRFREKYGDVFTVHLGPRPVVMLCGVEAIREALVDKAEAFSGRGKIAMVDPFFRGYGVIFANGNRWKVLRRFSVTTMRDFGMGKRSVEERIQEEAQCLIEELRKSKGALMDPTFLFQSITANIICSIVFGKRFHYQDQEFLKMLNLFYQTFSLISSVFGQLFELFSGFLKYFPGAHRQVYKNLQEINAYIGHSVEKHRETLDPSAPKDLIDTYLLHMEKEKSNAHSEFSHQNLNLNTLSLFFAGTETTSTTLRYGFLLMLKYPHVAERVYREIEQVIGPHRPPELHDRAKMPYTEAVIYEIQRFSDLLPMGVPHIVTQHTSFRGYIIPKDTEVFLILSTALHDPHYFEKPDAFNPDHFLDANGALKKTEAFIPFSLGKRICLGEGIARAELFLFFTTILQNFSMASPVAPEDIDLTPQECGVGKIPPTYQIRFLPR

[4] = system: NASH mouse model; experiment: CCL4- and HFD-induced NASH mouse model; type: in vivo, C57BL/6J mice; settings: data not shown; model group 5/9
[5] = system: DKD mouse model; experiment: STZ + HFD-induced DKD mouse model; type: in vivo, mice; settings: 50 mg/kg gavage twice a day, ten weeks
Protocol: 26 male neonatal mice were purchased from Chengdu Pharmachem Biotechnology Co., 5 of which were assigned to the control group and fed a chow diet. The other 21 mice were subcutaneously injected with STZ ([…]) 48 h after birth. After 4 weeks, these mice were fed a high‐fat diet (HFD, Research Diet, New Brunswick, NJ, USA) and randomly subdivided into two groups based on blood glucose level followed by 6 h of fasting: Model (n = 11) and CS17919 (n = 10). Both the control and model groups were given the solvent mentioned above, administered orally twice a day, while CS17919 was administered twice a day by gavage at a dose of 50 mg/kg for 70 days. Body weight measurements were performed twice a week during the administration period. 24‐h urine was collected for each mouse 2 days before sacrifice. Creatinine clearance was calculated using the following formula: creatinine clearance = urinary creatinine (mg/dL) × urine volume per minute (ml/min)/blood creatinine (mg/dL). Fasting blood glucose was measured before sacrifice. After a 10‐week drug intervention, mice were sacrificed, and blood was collected to isolate serum for the urea nitrogen and serum creatinine test. The kidneys of each mouse were then removed, weighed and fixed in 10% formalin solution for pathological study.
PAS staining was applied to determine kidney glomerular sclerosis in the DKD model. Thin 4 μm paraffin sections of each sample were used in this study, which followed the standard procedure. Periodic acid‐treated paraffin sections were stained using Schiff for 10 min, after rinsing the residual acid. Hematoxylin staining was performed for 3 min, and the samples were then dehydrated and sealed. The PAS score was calculated by semiquantitative analysis as follows: 0, without sclerosis; 1, 1%–25% sclerosis area; 2, 26%–50% sclerosis area; 3, 51%–75% sclerosis area; 4, >75% sclerosis area.

[6] = molecular target: CYP 2D6 (Homo sapiens, UniProt P10635); experiment: CYP inhibition in vitro; type: in vitro ADME
Sequence of CYP 2D6 (P10635 whole entry): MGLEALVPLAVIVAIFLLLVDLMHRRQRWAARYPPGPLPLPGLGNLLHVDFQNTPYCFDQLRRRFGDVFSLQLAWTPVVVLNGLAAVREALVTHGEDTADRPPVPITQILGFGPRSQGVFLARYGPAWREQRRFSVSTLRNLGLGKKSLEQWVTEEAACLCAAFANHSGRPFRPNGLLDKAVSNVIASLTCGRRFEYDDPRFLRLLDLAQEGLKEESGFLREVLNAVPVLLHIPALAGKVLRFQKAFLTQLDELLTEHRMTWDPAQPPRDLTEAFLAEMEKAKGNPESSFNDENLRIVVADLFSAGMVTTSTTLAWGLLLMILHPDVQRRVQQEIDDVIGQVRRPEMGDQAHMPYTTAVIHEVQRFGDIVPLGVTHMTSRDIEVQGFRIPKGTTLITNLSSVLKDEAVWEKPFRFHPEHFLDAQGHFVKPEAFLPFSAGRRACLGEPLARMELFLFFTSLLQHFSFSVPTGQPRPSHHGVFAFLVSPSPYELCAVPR

[7] = molecular target: CYP 2C8 (Homo sapiens, UniProt P10632); experiment: CYP inhibition in vitro; type: in vitro ADME
Sequence of CYP 2C8 (P10632 whole entry): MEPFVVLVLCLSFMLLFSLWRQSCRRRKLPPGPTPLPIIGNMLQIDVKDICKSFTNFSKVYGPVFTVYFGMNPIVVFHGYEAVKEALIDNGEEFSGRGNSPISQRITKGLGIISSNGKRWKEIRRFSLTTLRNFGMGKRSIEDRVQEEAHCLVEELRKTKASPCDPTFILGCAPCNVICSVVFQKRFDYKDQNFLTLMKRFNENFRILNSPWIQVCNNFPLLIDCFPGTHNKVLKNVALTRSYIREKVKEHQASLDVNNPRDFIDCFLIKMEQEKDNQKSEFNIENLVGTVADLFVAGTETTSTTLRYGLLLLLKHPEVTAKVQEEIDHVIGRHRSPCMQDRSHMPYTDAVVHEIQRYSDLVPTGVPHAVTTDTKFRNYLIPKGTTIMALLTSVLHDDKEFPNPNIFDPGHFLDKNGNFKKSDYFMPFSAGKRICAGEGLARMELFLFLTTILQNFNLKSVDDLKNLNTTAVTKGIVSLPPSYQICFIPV

[8] = system: NASH mouse model; experiment: CCL4- and HFD-induced NASH mouse model; type: in vivo, C57BL/6J mice; settings: CS17919 20 mg/kg
Protocol: 41 C57BL/6J mice, male, 6–8 weeks of age, were purchased from Chengdu Dossy Experimental Animal Co. (Chengdu, China), 9 of which were assigned in the control group and fed a chow diet. The other 32 mice were fed a HFD (D12429, Research diet, USA). After 8 weeks of feeding, these mice with HFD were subcutaneously injected with CCL4 (0.1 mL/kg) twice a week. These mice were then randomly subdivided into 4 groups according to serum ALT and AST at week 12: Model (n = 8), CS17919 (n = 8), CS27109 (n = 8), and Combination (n = 8). Both the control and model groups were given the solvent mentioned above, administered orally twice a day, while CS17919 was administered twice a day by gavage at a dose of 20 mg/kg and CS27109 was administered twice a day by gavage at a dose of 10 mg/kg for 4 weeks. The body weight of each mouse was measured every 3 days during the drug intervention. All animals were fasted overnight after the last drug administration and blood was collected to isolate serum for biochemical tests including AST, ALT, TG, TC, HDL‐c, and LDL‐c. The liver of each mouse was removed, the right lobe of which was fixed in 10% formalin solution for pathological study.
H&E staining was applied to determine scores for liver steatosis, ballooning and inflammation in the NASH model. Thin 4 μm paraffin sections of each sample were used to assess liver histology, following a standard protocol. Paraffin sections were deparaffinized and placed in Hematoxylin staining solution for 3–8 min before using tap water to elute excess Hematoxylin. Sections were stained in Eosin stain for about 1–3 min and rinsed with tap water. Finally, the slices were dehydrated and sealed. Score ranges were 0–3 for liver steatosis, 0–2 for ballooning and 0–12 for inflammation (which included scores of 0–3 for portal inflammation, 0–3 for lobular inflammation, 0–3 for piecemeal necrosis, and 0–3 for bridging necrosis).
Sirius Red staining was applied to determine liver fibrosis in the NASH model. Thin 4 μm paraffin sections of each sample were used in this study followed the standard procedure. Sections were first stained with Hematoxylin for 5–10 min, then washed and stained with Sirius Red stain about 15–30 min. Finally, the sections were rinsed and sealed. Image‐Pro Plus 6.0 was used for analyzing the area of liver fibrosis and the percentage of the fibrosis area in each section was calculated.

[9] = molecular target: CYP 2C19 (Homo sapiens, UniProt P33261); experiment: CYP inhibition in vitro; type: in vitro ADME
Sequence of CYP 2C19 (P33261 whole entry): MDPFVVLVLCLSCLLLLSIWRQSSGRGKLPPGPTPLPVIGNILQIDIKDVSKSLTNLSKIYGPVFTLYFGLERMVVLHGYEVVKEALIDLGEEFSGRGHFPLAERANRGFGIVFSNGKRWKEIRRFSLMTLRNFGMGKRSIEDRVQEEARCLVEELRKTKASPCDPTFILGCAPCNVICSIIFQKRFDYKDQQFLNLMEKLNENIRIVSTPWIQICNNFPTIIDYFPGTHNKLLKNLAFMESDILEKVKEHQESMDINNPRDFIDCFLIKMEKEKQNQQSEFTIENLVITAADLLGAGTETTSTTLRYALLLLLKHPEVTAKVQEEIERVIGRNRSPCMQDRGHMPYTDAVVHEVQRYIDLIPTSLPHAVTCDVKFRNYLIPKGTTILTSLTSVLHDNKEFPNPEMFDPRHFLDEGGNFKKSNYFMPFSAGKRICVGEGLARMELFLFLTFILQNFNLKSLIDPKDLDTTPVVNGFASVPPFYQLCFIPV

[10] = 4 weeks, CS27109 10 mg/kg twice a day
[11] = serum after 4 weeks, CS27109 10 mg/kg, gavage twice a day, mean ± SD

Cc1cc(F)c(C(=O)Nc2cccc(-c3nncn3[C@H](C)C(F)(F)F)n2)cc1NC(=O)C1CC1 [CS17919]
Cmax ([1]; 20 mg/kg p.o.): 4039 ± 646.90 ng/mL | MRT0–∞ ([1]; 20 mg/kg p.o.): 3.96 ± 0.91 h | T 1/2 ([1]; 20 mg/kg p.o.): 2.20 ± 0.74 h | T max ([1]; 20 mg/kg p.o.): 1.50 ± 0.87 h | Cmax ([1]; 50 mg/kg p.o.): 5741 ± 1835 ng/mL | MRT0–∞ ([1]; 50 mg/kg p.o.): 6.43 ± 1.44 h | T 1/2 ([1]; 50 mg/kg p.o.): 3.50 ± 1.86 h | T max ([1]; 50 mg/kg p.o.): 2.00 ± 0 h | Cell protection (cell viability normalized to PA-treated cells) ([2]; 0.32–10 μmol/L drug): significantly prevented apoptosis at all doses | Cell viability at high drug doses ([2]; 5 and 10 μmol/L drug): mild protective effect | IC50 [3]: > 10 µM | Occurrence of hepatocellular carcinoma (mice affected/group) [4]: 3/8 | Blood glucose [5]: mildly reduced | Body weight [5]: slight weight loss | Creatinine clearance [5]: non‐significant tendency to improve | Glomerular sclerosis score (PAS staining) vs model group [5]: significantly reduced | Insulin sensitivity (serum insulin) vs model group [5]: slightly increased | Renal coefficients [5]: improved | Serum creatinine [5]: significantly lowered | Serum urea nitrogen [5]: non‐significant tendency to reduce | IC50 [6]: > 10 µM | IC50 [7]: > 10 µM | Liver fibrosis area (Sirius Red staining) [8, 10]: significantly reduced | Liver inflammation score (H&E) [8, 10]: tended to improve | Liver steatosis and ballooning scores (H&E) [8, 10]: barely improved | ALT [8, 11]: 120.9 ± 80.3^a U/L | AST [8, 11]: 193.3 ± 110.1 U/L | HDL‐C [8, 11]: 0.604 ± 0.231 mmol/L | LDL‐C [8, 11]: 0.054 ± 0.028^a mmol/L | TC [8, 11]: 0.719 ± 0.251 mmol/L | TG [8, 11]: 0.223 ± 0.106 mmol/L | IC50 [9]: > 10 µM
